Six molecules from ChEMBL document CHEMBL1124978, “Direct C-glycosylation of guanine analogues: the synthesis and antiviral activity of certain 7- and 9-deazaguanine C-nucleosides” (1990) can be followed below.

Type in all cases: functional
Details in all cases: route intraperitoneal

For assay [1], the system named is Mus musculus. Put plainly: Tested against Forest virus infection in mice at dose 100 mg/kg administered intraperitoneally in experiment 3; 11/12(92).
Assay [2] concerns Mus musculus. Put plainly: Tested against Forest virus infection in mice at dose 100 mg/kg administered intraperitoneally in experiment 2; 11/12(92).
Assay [3] deals with Mus musculus. Briefly: Tested against Forest virus infection in mice at dose 100 mg/kg administered intraperitoneally in experiment 1; 9/12(75).
In assay [4] the test system is Mus musculus. Put plainly: Tested against Forest virus infection in mice at dose 100 mg/kg administered intraperitoneally in experiment 3.
The test system of assay [5] is Mus musculus. Briefly: Tested against Forest virus infection in mice at dose 100 mg/kg administered intraperitoneally in experiment 1.
Assay [6] concerns Mus musculus. Put plainly: Tested against Forest virus infection in mice at dose 100 mg/kg administered intraperitoneally in experiment 2.
The subject of assay [7] is Mus musculus. Put plainly: Tested against Forest virus infection in mice at dose 100 mg/kg administered intraperitoneally.
Assay [8] relates to Mus musculus. Put plainly: Tested against Forest virus infection in mice at dose 100 mg/kg administered intraperitoneally; 0/12(0).
Assay [9] concerns Mus musculus. Briefly: Tested against Forest virus infection in mice at dose 100 mg/kg administered intraperitoneally; 1/12(8).
Assay [10] concerns Mus musculus. Briefly: Tested against Forest virus infection in mice at dose 100 mg/kg administered intraperitoneally; 10/12(83).
For assay [11], the system named is Mus musculus. Briefly: Tested against Forest virus infection in mice at dose 100 mg/kg administered intraperitoneally; 7/12(58).

For `Nc1nc(=O)c2sc(=O)n([C@@H]3O[C@H](CO)[C@@H](O)[C@H]3O)c2[nH]1` [ISATORIBINE], the Survivors / total in the assay on Mus musculus [1] is 91.7%; in the assay with Mus musculus [2] it was 91.7%; in the assay with Mus musculus [3] it was 75%. Also, the Mean survival time with Mus musculus [4] is 9 days; in the assay on Mus musculus [5], 8.3 days; in the assay on Mus musculus [6], 10 days.

For `CC1=C([C@@H]2O[C@H](CO)[C@@H](O)[C@H]2O)C2C(=O)N=C(N)N=C2N1` (stereo partly specified), the Mean survival time with Mus musculus [7] is 7.2 days. The molecule further registered a Survivors / total in the assay with Mus musculus [8] of 0%.

`CN1C=C([C@@H]2O[C@H](CO)[C@@H](O)[C@H]2O)C2=NC(N)=NC(=O)C21` (stereo partly specified) yielded a Mean survival time in the assay on Mus musculus [7] of 8.1 days. Moreover, in the assay on Mus musculus [9], the Survivors / total worked out at 8.33%.

As to `CN1C(Cl)=C([C@@H]2O[C@H](CO)[C@@H](O)[C@H]2O)C2=NC(N)=NC(=O)C21` (stereo partly specified), the Survivors / total with Mus musculus [10] came out at 10%. Also, in the assay on Mus musculus [7], the Mean survival time was 11 days.

As for `NC1=NC(=O)C2NC=C([C@@H]3O[C@H](CO)[C@@H](O)[C@H]3O)C2=N1` (stereo partly specified), in the assay on Mus musculus [7], the Mean survival time turned out to be 7.3 days. For the same molecule, the Survivors / total in the assay with Mus musculus [9] was determined as 8.33%.

In turn, `CN1C(Br)=C([C@@H]2O[C@H](CO)[C@@H](O)[C@H]2O)C2=NC(N)=NC(=O)C21` (stereo partly specified) yielded a Survivors / total in the assay with Mus musculus [11] of 7%. This molecule also displayed a Mean survival time in the assay with Mus musculus [7] of 7 days.
